Measured values as given in patent publication US9683231B2, “RNAi-based method of drug screening and characterization” (Massachusetts Institute of Technology, priority 2010, dated 2017).
Starred links: 1 amine or outer side, 2 acyl side, 3 side chain; linkers in the order of their positions; H or OH if unused. Positions of bridges follow the written chain, without caps; N, C: chain ends. Non-standard residues stand in square brackets, D forms with d. Residues, ends and D or L forms follow the SMILES beside them. Chains are numbered I, II in the order given. Actinocin(9to1) = Cc1c2oc3c(C)ccc(C(=O)[*:1])c3nc-2c(C(=O)[*:2])c(N)c1=O; NMeV = CN[C@H](C(=O)O)C(C)C; Sar = CNCC(=O)O

system: Eμ-Mycp19^Arf−/− mouse lymphoma cells; test: Drug treatment and FACS viability (propidium iodide) to determine LD80-90; type: cell-based; conditions: not given

| SMILES | Concentration used (LD80-90) |
| --- | --- |
| N.N.O=C([O-])C1(C(=O)[O-])CCC1.[Pt+2] [Carboplatin] | 16.4 µM |

same assay, conditions: Mus musculus, read-out: Concentration used (LD80-90)

| SMILES | IC (80-90) |
| --- | --- |
| S=P(N1CC1)(N1CC1)N1CC1 [ThioTEPA] | 2.1 µM |

same assay, conditions: Mus musculus; concentration at which 80-90% of uninfected lymphoma cells were killed; lowest viability of 24, 48 and 72 h between 10% and 20%; read-out: Concentration used (LD80-90)

| SMILES | IC (80-90) |
| --- | --- |
| Nc1ccn([C@@H]2O[C@H](CO)[C@@H](O)C2(F)F)c(=O)n1 [Gemcitabine] | 0.1 µM |
| CN(N=O)C(=O)N[C@@H](C=O)[C@@H](O)[C@H](O)[C@H](O)CO [Streptozocin] | 83 µM |
| COc1c(C)cnc(Cn2cnc3c(Cl)nc(N)nc32)c1C [BIIB021] | 0.79 µM |
| CC[C@]1(O)C[C@@H]2CN(CCc3c([nH]c4ccccc34)[C@@](C(=O)OC)(c3cc4c(cc3OC)N(C)[C@H]3[C@@](O)(C(=O)OC)[C@H](OC(C)=O)[C@]5(CC)C=CCN6CC[C@]43[C@@H]65)C2)C1 [Vinblastine] | 0.0025 µM |
| COc1cc([C@@H]2c3cc4c(cc3[C@@H](O[C@@H]3O[C@@H]5CO[C@@H](C)O[C@H]5[C@H](O)[C@H]3O)[C@H]3COC(=O)[C@H]23)OCO4)cc(OC)c1O [Etoposide] | 0.034 µM |
| O=c1ncccn1[C@@H]1O[C@H](CO)[C@@H](O)[C@H]1O [Zebularine] | 30 µM |
| CO[C@H]1C[C@@H]2CC[C@@H](C)[C@@](O)(O2)C(=O)C(=O)N2CCCC[C@H]2C(=O)O[C@H]([C@H](C)C[C@@H]2CC[C@@H](O)[C@H](OC)C2)CC(=O)[C@H](C)/C=C(\C)[C@@H](O)[C@@H](OC)C(=O)[C@H](C)C[C@H](C)/C=C/C=C/C=C/1C [Rapamycin] | 15 µM |
| O=c1[nH]cc(F)c(=O)[nH]1 [5-Fluorouracil] | 0.0305 µM |
| O=C1c2c(O)ccc(O)c2C(=O)c2c(NCCNCCO)ccc(NCCNCCO)c21 [Mitoxantrone] | 0.0004 µM |
| CC(C)C[C@H](NC(=O)[C@H](Cc1ccccc1)NC(=O)c1cnccn1)B(O)O [Bortezomib] | 0.013 µM |
| COc1cc2ncnc(Nc3ccc(F)c(Cl)c3)c2cc1OCCCN1CCOCC1 [Gefitinib] | 12.5 µM |
| CS(=O)(=O)OCCCCOS(C)(=O)=O [Busulfan] | 40.6 µM |
| C#Cc1cccc(Nc2ncnc3cc(OCCOC)c(OCCOC)cc23)c1 [Erlotinib] | 6.5 µM |
| CC(=O)O[C@H]1C(=O)[C@@]2(C)[C@H]([C@H](OC(=O)c3ccccc3)[C@]3(O)C[C@H](OC(=O)[C@H](O)[C@@H](NC(=O)c4ccccc4)c4ccccc4)C(C)=C1C3(C)C)[C@]1(OC(C)=O)CO[C@@H]1C[C@@H]2O [Paclitaxel] | 0.008 µM |
| CCc1c2c(nc3ccc(OC(=O)N4CCC(N5CCCCC5)CC4)cc13)-c1cc3c(c(=O)n1C2)COC(=O)[C@]3(O)CC [Irinotecan] | 2.1 µM |
| COc1ccc2c(c1OC)C(=O)O[C@@H]2[C@H]1c2c(cc3c(c2OC)OCO3)CCN1C [Noscapine] | 58.1 µM |
| Nc1nc2nc[nH]c2c(=S)[nH]1 [6-Thioguanine] | 0.054 µM |
| NC(=O)NO [Hydroxyurea] | 78 µM |
| O=C(CCCCCN1C(=O)c2cccc3cccc(c23)C1=O)NO [Scriptaid] | 0.5 µM |
| CS(=O)(=O)N1CCN(Cc2cc3nc(-c4cccc5[nH]ncc45)nc(N4CCOCC4)c3s2)CC1 [GDC 0941] | 5.4 µM |
| CN(Cc1cnc2nc(N)nc(N)c2n1)c1ccc(C(=O)N[C@@H](CCC(=O)O)C(=O)O)cc1 [Methotrexate] | 0.033 µM |
| CCN(CC)CCCCNc1ncc2cc(-c3cc(OC)cc(OC)c3)c(NC(=O)NC(C)(C)C)nc2n1 [PD 173074] | 4.2 µM |
| CC[C@]1(O)C[C@H]2CN(CCc3c([nH]c4ccccc34)[C@@](C(=O)OC)(c3cc4c(cc3OC)N(C=O)[C@H]3[C@@](O)(C(=O)OC)[C@H](OC(C)=O)[C@]5(CC)C=CCN6CC[C@]43[C@@H]65)C2)C1 [Vincristine] | 0.0015 µM |
| Cn1nnc2c(C(N)=O)ncn2c1=O [Temozolomide] | 23.2 µM |

same assay, conditions: Mus musculus; read-out: Concentration used (LD80-90)

| SMILES | IC (80-90) |
| --- | --- |
| CN1C(=O)[C@]23CC4=CC=C[C@H](O)[C@H]4N2C(=O)[C@@]1(CO)SS3 [Gliotoxin] | 0.3 µM |
| CC[C@H](CO)Nc1nc(NCc2ccccc2)c2ncn(C(C)C)c2n1 [Roscovitine] | 26.7 µM |
| C[C@@]12C(=O)OC(=O)[C@]1(C)[C@H]1CC[C@@H]2O1 [Cantharidin] | 10.7 µM |
| Nc1nc(F)nc2c1ncn2[C@@H]1O[C@H](CO)[C@@H](O)[C@@H]1O [Fludarabine] | 3.8 µM |
| Cn1c(CCCC(=O)O)nc2cc(N(CCCl)CCCl)ccc21 [Bendamustine] | 110 µM |
| O=NN(CCCl)C(=O)NCCCl [Carmustine] | 26.7 µM |
| N[C@@H](Cc1ccc(N(CCCl)CCCl)cc1)C(=O)O [Melphalan] | 3.9 µM |
| CC[C@H](C)[C@H](NC(=O)[C@H]([C@@H](C)CC)N(C)C(C)=O)C(=O)N[C@H](C(=O)N[C@@H](CC(C)C)C(=O)[C@@]1(C)CO1)[C@@H](C)O [Epoxomicin] | 0.045 µM |
| COc1cccc2c1C(=O)c1c(O)c3c(c(O)c1C2=O)C[C@@](O)(C(C)=O)C[C@@H]3O[C@H]1C[C@H](N)[C@H](O)[C@H](C)O1 [Daunorubicin] | 0.0225 µM |

same assay, conditions: concentration at which 80-90% of uninfected lymphoma cells were killed; lowest viability of 24, 48 and 72 h between 10% and 20%

| SMILES | Concentration used (LD80-90) |
| --- | --- |
| O=C1C(=O)N(Cc2ccc(Cl)c(Cl)c2)c2ccccc21 [Apoptosis Activator 2] | 1.9 µM |
| CCNC(=O)c1noc(-c2cc(Cl)c(O)cc2O)c1-c1ccc(OC)cc1 [VER-50589] | 0.16 µM |
| C=CCNC1=C2C[C@@H](C)C[C@H](OC)[C@H](O)[C@@H](C)/C=C(\C)[C@H](OC(N)=O)[C@@H](OC)/C=C\C=C(/C)C(=O)NC(=CC1=O)C2=O [17 AAG] | 2.6 µM |
| COc1cc2c(cc1O)CC[C@@H]1[C@@H]2CC[C@]2(C)[C@@H](O)CC[C@@H]12 [2-Methoxyestradiol] | 1.8 µM |
| COc1cc2ncnc(Nc3cccc(Cl)c3)c2cc1OC [AG1478] | 19 µM |

same assay, conditions: figure legend 2c

| SMILES | LD80-90 |
| --- | --- |
| Cn1c(CCCC(=O)O)nc2cc(N(CCCl)CCCl)ccc21 [Bendamustine] | 110 µM |

same assay, conditions: read-out: Concentration used (LD80-90)

| SMILES | IC (80-90) |
| --- | --- |
| CO[C@@]12[C@H](COC(N)=O)C3=C(C(=O)C(C)=C(N)C3=O)N1C[C@@H]1N[C@@H]12 [Mitomycin C] | 0.09 µM |
| Cc1c2oc3c(C)ccc(C(=O)N[C@@H]4C(=O)N[C@H](C(C)C)C(=O)N5CCC[C@H]5C(=O)N(C)CC(=O)N(C)[C@@H](C(C)C)C(=O)O[C@@H]4C)c3nc-2c(C(=O)N[C@@H]2C(=O)N[C@H](C(C)C)C(=O)N3CCC[C@H]3C(=O)N(C)CC(=O)N(C)[C@@H](C(C)C)C(=O)O[C@@H]2C)c(N)c1=O [Actinomycin D] (I: T[dV]P[Sar][NMeV] / II: T[dV]P[Sar][NMeV]; ester I:1-I:C, II:1-II:C; linker I:N-II:N via Actinocin(9to1)) | 0.0012 µM |
